{"source": "paper PMC12865225", "about": "(Clinical and Translational Science, 2026)", "key": {"[1]": {"molecular_target": "T1, P-gp (Homo sapiens, UniProt P08183)", "T1 construct": "made in house; host or cells: membrane vesicles from HEK293 cells expressing the transporter", "T1 sequence (P08183 whole entry)": "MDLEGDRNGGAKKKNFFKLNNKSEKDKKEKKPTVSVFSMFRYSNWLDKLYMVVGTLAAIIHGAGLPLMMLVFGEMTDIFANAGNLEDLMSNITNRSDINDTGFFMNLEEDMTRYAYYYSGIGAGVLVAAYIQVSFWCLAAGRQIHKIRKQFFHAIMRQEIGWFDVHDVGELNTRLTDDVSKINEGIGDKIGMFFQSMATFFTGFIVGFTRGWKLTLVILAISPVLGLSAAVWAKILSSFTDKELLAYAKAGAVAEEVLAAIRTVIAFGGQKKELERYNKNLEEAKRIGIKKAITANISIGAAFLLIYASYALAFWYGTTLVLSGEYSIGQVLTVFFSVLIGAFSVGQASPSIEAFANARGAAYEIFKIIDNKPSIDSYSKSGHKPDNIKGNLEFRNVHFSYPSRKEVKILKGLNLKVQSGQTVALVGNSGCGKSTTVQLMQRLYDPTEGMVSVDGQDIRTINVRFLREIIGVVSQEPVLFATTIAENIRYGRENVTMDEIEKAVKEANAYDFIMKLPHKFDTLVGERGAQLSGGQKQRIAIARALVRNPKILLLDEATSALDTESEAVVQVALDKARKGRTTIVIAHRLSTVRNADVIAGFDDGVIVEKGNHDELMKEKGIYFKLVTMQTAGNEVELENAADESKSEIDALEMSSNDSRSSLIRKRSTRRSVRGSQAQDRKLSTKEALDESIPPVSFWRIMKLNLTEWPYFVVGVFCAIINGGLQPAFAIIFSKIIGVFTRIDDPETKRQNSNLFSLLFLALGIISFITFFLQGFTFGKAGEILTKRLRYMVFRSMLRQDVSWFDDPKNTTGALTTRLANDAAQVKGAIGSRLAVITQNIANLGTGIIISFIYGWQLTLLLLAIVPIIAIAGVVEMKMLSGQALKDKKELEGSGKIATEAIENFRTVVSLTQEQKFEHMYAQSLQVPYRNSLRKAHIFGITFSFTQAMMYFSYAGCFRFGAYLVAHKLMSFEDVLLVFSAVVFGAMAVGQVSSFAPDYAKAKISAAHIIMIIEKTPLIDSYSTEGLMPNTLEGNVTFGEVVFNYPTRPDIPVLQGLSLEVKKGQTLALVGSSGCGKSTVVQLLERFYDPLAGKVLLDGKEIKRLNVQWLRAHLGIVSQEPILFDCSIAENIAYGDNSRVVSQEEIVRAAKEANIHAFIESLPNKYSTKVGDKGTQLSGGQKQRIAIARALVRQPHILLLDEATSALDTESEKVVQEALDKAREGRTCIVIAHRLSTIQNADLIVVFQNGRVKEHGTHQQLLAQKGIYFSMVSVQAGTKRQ", "test": "P-gp inhibition, N-methyl-quinidine transport in HEK293 membrane vesicles", "assay_type": "biochemical", "conditions": "for Calculated R-value P-gp: R = I gut/IC50, FDA cut-off ≥ 10", "procedure": "Membrane vesicles, 5 μL (7.5 μg of total protein), prepared as previously reported, were aliquoted to wells of a conical‐shaped 96‐well plate. The plate was incubated for 10 min at +37°C before the initiation of transport by adding 25 μL of TS‐buffer (10 mM Tris, 250 mM sucrose, pH adjusted to 7.4 with HEPES) containing magnesium chloride (10 mM final in the reaction), adenosine triphosphate (ATP) or adenosine monophosphate (AMP), 4 mM final in the reaction, and the transporter substrate and inhibitor. Each experiment included triplicate samples for both ATP and AMP samples. The concentrations of rosuvastatin and N‐methyl‐quinidine were 1 μM in the BCRP and P‐gp vesicle inhibition assays, respectively. The transport reaction times were 1 and 2 min for BCRP and P‐gp, respectively. […] The transport reactions were quenched by adding 200 μL of cold TS‐buffer to each well and transferring the samples to a 96‐multiwell 1.0 μm glass fiber filter plate (Merck Millipore, Darmstadt, Germany) kept under vacuum. Wells were further washed four times with cold TS‐buffer, after which the plate was dried under vacuum. The compounds were eluted from the plate by applying 100 μL of 75% methanol containing 0.1% formic acid to each well and incubating at 250 RPM for 30 min before centrifuging the samples to an analysis plate at 2800 g for 2 min. For the rosuvastatin samples, the elution solvent contained rosuvastin‐d6 as the internal standard.\nFor the inhibition data analysis, the average of measured concentrations in the control cells was subtracted from the average of measured concentrations in transporter‐expressing cells for each inhibitor concentration and then normalized to the vehicle sample that represents 100% transport activity. Equation (1) was fit to the inhibition data. In Equation (1), Inhibition represents the percent inhibition of transporter‐mediated uptake at an inhibitor concentration of I and IC50 is the half‐maximal inhibitory concentration. (1) Inhibition=100%−100%/1+10^logIC50−logI"}, "[2]": {"molecular_target": "T2, OAT3 (Homo sapiens, UniProt Q8TCC7)", "T2 sequence (Q8TCC7 1-542)": "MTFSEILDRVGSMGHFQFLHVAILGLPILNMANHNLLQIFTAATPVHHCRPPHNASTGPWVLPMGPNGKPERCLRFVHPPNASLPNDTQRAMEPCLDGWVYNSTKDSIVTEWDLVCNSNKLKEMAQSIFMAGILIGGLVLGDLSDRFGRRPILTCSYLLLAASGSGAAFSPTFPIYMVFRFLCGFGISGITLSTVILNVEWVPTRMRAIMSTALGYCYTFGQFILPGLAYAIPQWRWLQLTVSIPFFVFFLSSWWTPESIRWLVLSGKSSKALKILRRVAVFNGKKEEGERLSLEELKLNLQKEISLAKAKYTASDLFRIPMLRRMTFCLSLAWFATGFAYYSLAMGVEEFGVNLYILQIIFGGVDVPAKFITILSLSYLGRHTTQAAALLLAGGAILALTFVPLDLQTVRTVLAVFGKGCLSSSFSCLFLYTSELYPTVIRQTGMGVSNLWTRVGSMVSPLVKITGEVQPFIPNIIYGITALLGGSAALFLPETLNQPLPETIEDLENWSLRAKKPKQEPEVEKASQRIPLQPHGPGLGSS", "test": "Uptake transport assay in OAT3-expressing HEK293 cells", "conditions": "for transport by OAT3: 2 and 50 μM, 10 min; for Vmax (pmol/106 cells/min) OAT3: uptake, 2 min", "procedure": "(§1) The human transporters OATP1B1, OATP1B3, OATP2B1, and OAT1‐OAT4 and a negative control protein (enhanced yellow fluorescent protein, eYFP) were transiently expressed in human embryonic kidney 293 (HEK293) cells by recombinant baculovirus‐mediated transduction. Baculoviruses carrying human genes for the transporters were prepared as reported previously. HEK293 cells were cultured in DMEM containing 10% fetal bovine serum at 37°C and 5% CO2 and passaged two to three times per week. For the transport studies, 0.05 × 10^6 cells for 48‐well plates (OATPs) or 0.06 × 10^6 cells for 24‐well plates (OATs) were seeded onto cell‐culture treated well plates coated with poly‐D‐lysine. After 1 day, cells were transduced to produce recombinant proteins by changing media to DMEM containing 30 μL (48‐well plates) or 60 μL (24‐well plates) of recombinant baculovirus and 3 mM (OATs) or 5 mM (OATPs) sodium butyrate in a total media volume of 500 μL. The cells were cultured for a further 2 days before the transport assays.\nFor the transport studies, media were removed and cells were washed once with warm transport uptake buffer (TP‐buffer—pH 7.4 HBSS with 25 mM HEPES and 4 mM sodium bicarbonate). Each experiment included triplicate (OATP) or duplicate (OAT) samples for every test condition. The uptake was started by removing liquid from wells and applying warm TP‐buffer (200 μL for 24‐well plates or 125 μL for 48‐well plates) containing a test compound to cells. Transport assays were terminated after a pre‐specified incubation time (reported in figure legends) by removing substrate solution and washing cells three times with cold TP‐buffer (300 μL for 48‐well plates and 400 μL for 24‐well plates). For the liquid chromatography mass spectrometry (LC–MS) analysis, compounds were extracted from cells with 125 μL (48‐well plates) or 250 μL (24‐well plates) of an ultrapure‐water solution containing 75% methanol and 0.1% formic acid, shaking at 250 RPM for 30 min. […] Samples were transferred to well plates, centrifuged at 3000 g for 30 min, and transferred to a new well plate for the analysis.\nEquation (2) (the Michaelis–Menten equation) was fit to the transport kinetic assay data. […] (2) Uptake=Vmax×S/Km+S"}, "[3]": {"system": "T3, OAT2", "T3 construct": "expressed in transfected cells; host or cells: HEK293 (recombinant baculovirus-mediated transduction)", "test": "Uptake transport assay in OAT2-expressing HEK293 cells", "assay_type": "cell-based, human", "conditions": "2 and 50 μM, 10 min", "procedure": "as §1\nFor the transport studies, media were removed and cells were washed once with warm transport uptake buffer (TP‐buffer—pH 7.4 HBSS with 25 mM HEPES and 4 mM sodium bicarbonate). Each experiment included triplicate (OATP) or duplicate (OAT) samples for every test condition. […]"}}, "note": "Marks after values point to notes of the source that are not given here."}
{"smiles": "Cc1onc(-c2c(Cl)cccc2Cl)c1C(=O)N[C@@H]1C(=O)N2[C@@H]1SC(C)(C)[C@@H]2C(=O)O", "note": "[Dicloxacillin]", "values": [{"measurement": "Calculated R-value P-gp", "setting": "[1]", "result": "33 ^b"}, {"measurement": "inhibition of P-gp transport at the highest concentration", "setting": "[1]; highest concentration", "result": "almost completely inhibited"}, {"measurement": "transport by OAT3", "setting": "[2]", "result": "transported"}, {"measurement": "Vmax (pmol/106 cells/min) OAT3", "setting": "[2]", "result": 296, "unit": "pmol/106 cells/min"}, {"measurement": "transport by OAT2", "setting": "[3]", "result": "transported"}]}
{"smiles": "Cc1onc(-c2c(F)cccc2Cl)c1C(=O)N[C@@H]1C(=O)N2[C@@H]1SC(C)(C)[C@@H]2C(=O)O", "note": "[Flucloxacillin]", "values": [{"measurement": "IC50", "setting": "[1]; 1 μM N-methyl-quinidine, 2 min, membrane vesicles", "result": "≥ 833", "unit": "µM"}, {"measurement": "Calculated R-value P-gp", "setting": "[1]", "result": "11 ^b"}, {"measurement": "reduction of P-gp activity", "setting": "[1]; highest tested concentration of 2100 μM", "result": 65, "unit": "%"}, {"measurement": "transport by OAT3", "setting": "[2]", "result": "transported"}, {"measurement": "Vmax (pmol/106 cells/min) OAT3", "setting": "[2]", "result": 277, "unit": "pmol/106 cells/min"}, {"measurement": "transport by OAT2", "setting": "[3]", "result": "transported"}]}
